In US8293979B2, “Weed controller metabolism proteins, genes, thereof and use of the same” (Sumitomo Chemical Company, Limited, priority 2001, dated 2012):

Columns and labels:
[1] = tested on: Blackgrass; assay: Herbicidal activity test, foliage treatment; format: in vivo, Alopercurus myosuroides; set-up: key: 0: situations in which the condition of sprouting or vegetation at the time of examination of the plant utilized for the test was compared with and showed totally or substantially no difference with that of the untreated application; 10: situations in which the plant completely withered or the sprouting or vegetation was completely suppressed; conditions: sprayed onto the foliage of plants cultivated 10 days, investigated after 16 days in a greenhouse
Protocol: Soil was packed into a round plastic pot having a diameter of 10 cm and depth of 10 cm. Barnyardgrass, Blackgrass, Ivyleaf morningglory were seeded and cultivated in a greenhouse for 10 days. Five (5) parts of the test compound, 6 parts of sorpol3005X (Toho Chemical Company) and 89 parts of xylene were well mixed to produce an emulsion. A certain amount thereof was diluted with water containing 0.1% (v/v) of a sticking agent at a proportion of 1000 L for 1 hectare and was spread uniformly with a spray-gun onto the all sides of the foliage from above the plant cultivated in the above pot. After cultivating the plants for 16 days in a greenhouse, the herbicidal activity of the test compound was investigated.
In the above Tables 3 and 4, the strength of the herbicidal activity is shown stepwise as 0, 1, 2, 3, 4, 5, 6, 7, 8, 9, and 10.

[2] = tested on: leaf pieces derived from the tobacco to which the present invention DNA (A1) was introduced; assay: Herbicidal damage of tobacco leaf pieces on MS agar medium containing compound (II); format: cell-based, Nicotiana tabacum strain SR1; conditions: MS agar medium containing 0.1 mg/L of compound (II), in the light at room temperature, 7th day of culturing
Protocol: Then, according to the method described in Manual for Gene Manipulation of Plant (by Hirofumi UCHIMIYA, Kodan-sha Scientific, 1992), the gene was introduced into tobacco. Agrobacterium strains bearing the above plasmids were each cultured at 28° C. overnight in LB medium containing 300 mg/L streptomycin, 100 mg/L rifampicin and 25 mg/L kanamycin, and then leaf pieces of tobacco (Nicotiana tabacum strain SR1) cultured sterilely were dipped in the liquid culture medium. The leaf pieces were planted and cultured at room temperature for 2 days in the light in MS agar medium (MS inorganic salts, MS vitamins, 3% sucrose and 0.8% agar; described in Murashige T. and Skoog F., Physiol. Plant. (1962) 15, p 473) containing 0.1 mg/L of naphthalene acetic acid and 1.0 mg/L of benzyl aminopurine. Then, the leaf pieces were washed with sterilized water and cultured for 7 days on MS agar medium containing 0.1 mg/L of naphthalene acetic acid, 1.0 mg/L of benzyl aminopurine and 500 mg/L of cefotaxime. Next, the leaf pieces were transplanted and cultured in MS agar medium containing 0.1 mg/L of naphthalene acetic acid, 1.0 mg/L of benzyl aminopurine, 500 mg/L of cefotaxime and 100 mg/L of kanamycin. The culture was conducted continuously for 4 months while transplanting the leaf pieces to fresh medium of the same composition at intervals of 4 weeks. […]

[3] = tested on: present invention protein (A13); assay: Detection of the ability to convert compound (II) to compound (III), E. coli pKSN474F extract; format: in vitro ADME, Streptomyces thermocoerulesces IFO 14273t; conditions: 3 ppm of compound (II) labeled with 14C, components A, B, 10 minutes at 30° C.
Protocol: (§1) Reaction solutions of 30 μl were prepared and maintained for 10 minutes at 30° C. The reaction solutions consisted of a 0.1M potassium phosphate buffer (pH7.0) containing 3 ppm of compound (II) labeled with ^14C, 2 mM of β-NADPH (hereinafter, referred to as “component A”) (Oriental Yeast Company), 2 mg/ml of a ferredoxin derived from spinach (hereinafter referred to as “component B”) (Sigma Company), 0.1 U/ml of ferredoxin reductase (hereinafter, referred to as “component C”) (Sigma Company) and 23 μl of the supernatant fraction recovered in Example 32(2). Similarly to Example 4(3), the reaction solutions after the maintenance were extracted with ethyl acetate and the extracted layers were TLC analyzed. […] A spot corresponding to compound (III) was detected from the reaction solution containing E. coli pKSN849AF extract. In contrast, such a spot was not detected from the reaction solution containing E. coli pKSN2 extract.
(§2) Reaction solutions of 30 μl were prepared and maintained for 10 minutes at 30° C. […] The reaction solutions after the maintenance were extracted with ethyl acetate and the extracted layers were TLC analyzed. […] A spot corresponding to compound (III) was detected from the reaction solution containing E. coli pKSN474F extract. In contrast, such a spot was not detected from the reaction solution containing E. coli pKSN2 extract.

[4] = tested on: present invention protein (A20); assay: Detection of the ability to convert compound (II) to compound (III), E. coli pKSN1525F extract; format: in vitro ADME, Streptomyces lanatus IFO 12787T; conditions: 3 ppm of compound (II) labeled with 14C, components A, B, 10 minutes at 30° C.
Protocol: as §1
as §2, with “Similarly to Example 32(3), reaction” for “Reaction”, “pKSN1525F” for “pKSN474F”

C[C@@H](Oc1cc(-n2c(=O)cc(C(F)(F)F)n(C)c2=O)c(F)cc1Cl)C(=O)O [compound (II)]
Herbicidal Activity Blackgrass ([1]; 125 g/ha): 10 | Herbicidal Activity Blackgrass ([1]; 500 g/ha): 10 | herbicidal damage of the leaf pieces [2]: grew continuously | spot corresponding to compound (III) labeled with 14C (TLC) [3]: detected | spot corresponding to compound (III) labeled with 14C (TLC) [4]: detected
